The record followed here is patent US20080227725A1, “Cosmetic or pharmaceutical composition comprising peptides, uses and treatment processes” (priority 2002, published 2008).

Where a SMILES comes first, the peptide text is derived from it.

The subject of this series is ERG 1-2 molecule. Nature of the series: Cell differentiation marker ERG 1-2 in HaCat keratinocytes, immunofluorescence. Format: cell-based. The settings on record: HaCat human keratinocytes, at 24 hours.

As for `N=C(N)NCCC[C@H](N)C(=O)NCC(=O)N[C@@H](CO)C(=O)O` [Arg-Gly-Ser] (H-Arg-Gly-Ser-OH), the “quantity of ERG molecules present in the cells (intensity of fluorescence), cell differentiation” value is “increases the quantity of ERG molecules”.
